Measured values: US5491170A, “β-carboxy sulfonamide ACAT inhibitors” (priority 1994, dated 1996)

Assays:
male Sprague-Dawley rats = test: APCC: in vivo screen, total cholesterol in rats fed a high fat, high cholesterol diet; design: species or system rat (male Sprague-Dawley); conditions: Rattus norvegicus, po, 16 h, 30 mg/kg by gavage, high cholesterol diet (5.5% peanut oil, 1.5% cholesterol, 0.5% cholic acid), dosed 4 PM, sacrificed 8 AM, read-out: APCC (% change TC): percent change in total cholesterol from control animals given vehicle and diet only
Description: In an in vivo screen designated APCC, male Sprague-Dawley rats (200-225 g body weight) were randomly divided into treatment groups and dosed at 4 PM with either vehicle (CMC/Tween) or suspensions of invention compounds in vehicle. The normal chow diet was then replaced with a high fat, high cholesterol diet (5.5% peanut oil, 1.5% cholesterol, and 0.5% cholic acid). The rats consumed this diet ad libitum during the night and were sacrificed at 8 AM to obtain blood samples for cholesterol analysis using standard procedures. Statistical differences between mean cholesterol values for the same vehicle were determined using analysis of variance followed by Fisher's least significant test. The results of this trial for representative compounds of the present invention also appear in Table I as the percent change in total cholesterol (% TC) from control animals given vehicle and diet only. All compounds in the APCC test reported in Table 1 were administered by gavage at 30 mg/kg.

[1] = target: T1, acyl-CoA: cholesterol acyltransferase (ACAT) (Rattus norvegicus, UniProt Q7TQM4); test: LAI: in vitro inhibition of ACAT (acylation of cholesterol by radiolabeled oleic acid) in rat liver microsomes; assay type: biochemical
T1 construct: tissue preparation containing rat liver microsomes (designated LAI); from tissue; host or cells: rat liver microsomes
T1 sequence (Q7TQM4 1-524): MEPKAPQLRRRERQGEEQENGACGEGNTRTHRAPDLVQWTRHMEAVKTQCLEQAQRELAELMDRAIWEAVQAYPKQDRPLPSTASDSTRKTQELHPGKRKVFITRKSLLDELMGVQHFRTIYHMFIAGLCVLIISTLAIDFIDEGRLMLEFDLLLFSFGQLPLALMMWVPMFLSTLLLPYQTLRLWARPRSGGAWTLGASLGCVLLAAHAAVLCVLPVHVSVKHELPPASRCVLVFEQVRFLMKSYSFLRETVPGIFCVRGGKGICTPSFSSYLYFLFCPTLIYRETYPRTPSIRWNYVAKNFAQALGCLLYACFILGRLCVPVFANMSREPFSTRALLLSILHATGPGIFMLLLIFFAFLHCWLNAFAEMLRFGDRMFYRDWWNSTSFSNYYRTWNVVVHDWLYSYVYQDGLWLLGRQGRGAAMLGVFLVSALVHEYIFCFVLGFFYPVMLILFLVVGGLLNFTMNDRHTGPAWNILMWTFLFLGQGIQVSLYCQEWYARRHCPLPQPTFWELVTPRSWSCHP
Procedure: The ability of representative compounds of the present invention to inhibit ACAT was measured using an in vitro test more fully described in F. J. Field and R. G. Salone, Biochemica et Biophysica Acta, 712:557-570 (1982). The test assesses the ability of a test compound to inhibit the acylation of cholesterol by oleic acid by measuring the amount of radiolabeled cholesterol oleate formed from radiolabeled oleic acid in a tissue preparation containing rat liver microsomes (designated LAI).

Row | Compound | change in vivo at 30 mg/kg (male Sprague-Dawley rats) [%] | IC50 [1] [µM]
1 | CCCCCCCCCCCCNC(=O)CS(=O)(=O)Nc1c(C(C)C)cccc1C(C)C [Example 5, 2-(2,6-Diisopropylphenylsulfamoyl)-N-dodecyl-acetamide] | -29 | –
2 | CC(CCc1ccccc1)COC(=O)CS(=O)(=O)Nc1c(C(C)C)cccc1C(C)C (centres unmarked) [Example 40, (2,6-diisopropylphenylsulfamoyl)-acetic acid, (2-methyl-4-phenylbutyl) ester] | -32 | 4.2
3 | CC(C)c1cccc(C(C)C)c1NS(=O)(=O)CC(=O)O [Example 30, (2,6-Diisopropylphenylsulfamoyl)-acetic Acid] | 3 | > 1
4 | CCCCCCCCCCCCCCSC(=O)CS(=O)(=O)Nc1c(C(C)C)cccc1C(C)C [Example 15, (2,6-Diisopropylphenylsulfamoyl)-thio-acetic Acid S-tetradecyl Ester] | -23 | –
5 | CC(C)c1cccc(C(C)C)c1NS(=O)(=O)CC(=O)N(Cc1ccccc1)C(C)C [Example 7, N-Benzyl-N-isopropyl-2-(2,6-diisopropylphenylsulfamoyl)acetamide] | -31 | –
6 | CCCCCCCCCCCCC(C)OC(=O)CS(=O)(=O)Nc1c(C(C)C)cccc1C(C)C (centres unmarked) [Example 28, (2,6-Diisopropylphenylsulfamoyl)-acetic Acid 1-methyltridecyl Ester] | -39 | –
7 | CCCCCCCCCCCCCCCCCCSC(=O)CS(=O)(=O)Nc1c(C(C)C)cccc1C(C)C [Example 18, (2,6-Diisopropylphenylsulfamoyl)-thioacetic Acid S-octadecyl Ester] | -35 | > 5
8 | COc1cc(OC)c(OC(=O)CS(=O)(=O)Nc2c(C(C)C)cccc2C(C)C)c(OC)c1 [Example 25, (2,6-Diisopropylphenylsulfamoyl)-acetic Acid 2,4,6-trimethoxyphenyl Ester] | -6 | > 1
9 | CCCCCCCCN(CCCCCCCC)C(=O)CS(=O)(=O)Nc1c(C(C)C)cccc1C(C)C [Example 3, 2-(2,6-Diisopropylphenylsulfamoyl)-N,N-dioctylacetamide] | -19 | –
10 | CCOC(=O)CS(=O)(=O)Nc1c(C(C)C)cccc1C(C)C [Example 21, (2,6-Diisopropylphenylsulfamoyl)-acetic Acid Ethyl Ester] | 2 | > 1
11 | CC(C)c1cc(C(C)C)c(NS(=O)(=O)CC(=O)Oc2c(C(C)C)cccc2C(C)C)c(C(C)C)c1 [Example 31, (2,4,6-Triisopropylphenylsulfamoyl)-acetic Acid, 2,6-Diisopropyl Ester] | -29 | > 1
12 | CCCCCCCCCCCCn1nnc(NC(=O)CS(=O)(=O)Nc2c(C(C)C)cccc2C(C)C)n1 [Example 2, 2-(2,6-Diisopropyl-phenylsulfamoyl)-N-(dodecyl-2-H-tetrazol-5-yl)-acetamide] | -50 | 1.9
13 | CC(C)c1cccc(C(C)C)c1NS(=O)(=O)CC(=O)NCC(c1ccccc1)C1CCCC1 (centres unmarked) [Example 9, 2-(2,6-Diisopropylphenylsulfamoyl)-N-(2-cyclopentyl-2-phenylethyl)-acetamide] | – | > 1
14 | CC(C)c1cccc(C(C)C)c1NS(=O)(=O)CC(=O)NC(c1ccccc1)c1ccccc1 [Example 8, 2-(2,6-Diisopropylphenylsulfamoyl)-N-diphenylmethylacetamide] | – | > 1
15 | CC(C)c1cccc(C(C)C)c1NC(=O)CS(=O)(=O)Nc1c(C(C)C)cccc1C(C)C [Example 4, N-(2,6-Diisopropylphenyl)-2-(2,6-diisopropylphenylsulfamoyl)-acetamide] | -51 | –
16 | CCCCCCCCCCCCCCOC(=O)CS(=O)(=O)Nc1c(C(C)C)cccc1C(C)C [Example 20, (2,6-Diisopropylphenylsulfamoyl)-acetic Acid Tetradecyl Ester] | -45 | –
17 | CCCCCCCCCCCCSC(=O)CS(=O)(=O)Nc1c(C(C)C)cccc1C(C)C [Example 10, (2,6-Diisopropylphenylsulfamoyl)-thio-acetic Acid S-dodecyl Ester] | -71 | –
18 | Cc1cccc(C)c1SC(=O)CS(=O)(=O)Nc1c(C(C)C)cccc1C(C)C [Example 19, (2,6-Diisopropylphenylsulfamoyl)-thioacetic Acid S-2,6-dimethylphenyl Ester] | 3 | > 5
19 | CCCCCCCCCCCCSC(=O)CS(=O)(=O)Nc1c(OC)cc(OC)cc1OC [Example 17, (2,4,6-Trimethoxyphenylsulfamoyl)-thioacetic Acid S-dodecyl Ester] | -3 | 0.57
20 | CCCCCCCCCCCCOC(=O)CS(=O)(=O)Nc1c(C(C)C)cccc1C(C)C [Example 29, (2,6-Diisopropylphenylsulfamoyl)-acetic Acid Dodecylester] | -34 | –
21 | CCCCCCCCOC(=O)CS(=O)(=O)Nc1c(C(C)C)cccc1C(C)C [Example 23, (2,6-Diisopropylphenylsulfamoyl)-acetic Acid Octyl Ester] | -4 | > 1
22 | CC(C)c1cc(C(C)C)c(OC(=O)CS(=O)(=O)Nc2c(C(C)C)cccc2C(C)C)c(C(C)C)c1 [Example 1, 2,4,6-Triisopropylphenyl(2,6-diisopropylphenylsulfamoyl)acetate] | -19 | –
23 | CCCCCCCCCCOC(=O)CS(=O)(=O)Nc1c(C(C)C)cccc1C(C)C [Example 24, (2,6-Diisopropylphenylsulfamoyl)-acetic Acid Decylester] | -16 | > 1
24 | CCCCCCCCCCCCSC(=O)CS(=O)(=O)Nc1ccc(F)cc1F [Example 16, (2,4-Diifluorophenylsulfamoyl)-thioacetic Acid S-dodecyl Ester] | -37 | 0.23
25 | CC(C)c1cccc(C(C)C)c1NS(=O)(=O)CC(=O)Oc1c(C(C)C)cccc1C(C)C [Example 22, 2,6,-Diissoproplphenyl(2,6-diisopropylphenylsulfamoyl)acetate] | -7 | 17.6
26 | CCCCCCNC(=O)CS(=O)(=O)Nc1c(C(C)C)cccc1C(C)C [Example 6, 2-(2,6-Diisopropylphenylsulfamoyl)-N-hexyl-acetamide] | -16 | > 5
27 | CCCCCCOC(=O)CS(=O)(=O)Nc1c(C(C)C)cccc1C(C)C [Example 26, (2,6-Diisopropylphenylsulfamoyl)-acetic Acid Hexyl Ester] | -5 | > 1
28 | COc1cc(OC)c(NC(=O)CS(=O)(=O)Nc2c(OC)cc(OC)cc2OC)c(OC)c1 [Example 27, N-(2,4,6-trimethyoxyphenyl)-2-(2,4,6-trimethoxy-phenylsulfamoyl)-acetamide] | 5 | 7.6
29 | CC(C)c1cccc(C(C)C)c1NS(=O)(=O)CC(=O)Sc1c(C(C)C)cccc1C(C)C [Example 12, (2,6-Diisopropylphenylsulfamoyl)-thioacetic Acid 2,6-Diisopropylphenyl Ester] | -16 | > 5
30 | CCCCCCCCSC(=O)CS(=O)(=O)Nc1c(C(C)C)cccc1C(C)C [Example 11, (2,6-Diisopropylphenylsulfamoyl)-thio-acetic Acid S-octyl Ester] | -32 | –
